Marks after values point to notes of the source that are not given here.
Tests used:
[1] = tested on: Caco-2 cell monolayers; experiment: Caco-2 cell monolayer translocation; type: in vitro ADME
[2] = tested on: C57Bl6 mice; experiment: Mouse tail-flick assay; type: in vivo; conditions: intravenous, nonlinear regression of log dose–response curve
[3] = Metabolic plasma stability assay; type: in vitro ADME; conditions: up to 20 h
[4] = tested on: MOR; conditions: read-out: GPI IC50; DALDA literature characterisation, no reference given; cited from earlier work
[5] = target: MOR (Rattus norvegicus, UniProt P33535); type: binding
Chain of MOR (Rattus norvegicus, UniProt P33535) (P33535 whole entry): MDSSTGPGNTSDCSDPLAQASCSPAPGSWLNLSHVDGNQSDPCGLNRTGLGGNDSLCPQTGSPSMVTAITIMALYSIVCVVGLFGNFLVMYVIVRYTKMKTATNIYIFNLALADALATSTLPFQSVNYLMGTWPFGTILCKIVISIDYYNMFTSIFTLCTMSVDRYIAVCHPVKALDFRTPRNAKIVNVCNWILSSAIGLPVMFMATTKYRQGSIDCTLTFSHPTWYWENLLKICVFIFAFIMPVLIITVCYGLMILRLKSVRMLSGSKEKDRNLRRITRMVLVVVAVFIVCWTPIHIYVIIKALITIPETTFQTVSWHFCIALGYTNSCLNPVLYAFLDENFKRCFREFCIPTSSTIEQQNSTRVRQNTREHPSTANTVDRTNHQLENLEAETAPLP

[6] = cited from earlier work
[7] = cis-concentration 13 nM, absence of unlabelled compound, means ± SE, n = 3

## Cc1cc(O)cc(C)c1C[C@H](N)C(=O)N[C@H](CCCNC(=N)N)C(=O)N[C@@H](Cc1ccccc1)C(=O)N[C@@H](Cc1cn([C@@H]2O[C@H](CO)[C@H](O)[C@H](O)[C@H]2O)nn1)C(N)=O [compound 4]
[1]; 21 day old Caco-2 monolayers, 13 nM
  A–B and B–A permeabilities compared to mannitol: slightly higher than the permeability of the passive flux marker mannitol
[1]; [7]
  Flux A–B (lumen–blood): 2.59 ± 0.15 nmol·cm^−2·min^−1 × 10^−7
  Flux B–A (blood–lumen): 2.96 ± 0.13 nmol·cm^−2·min^−1 × 10^−7
[2]
  ED50 tail-flick test: 0.27* mg/kg
[3]
  degradation in human plasma: no degradation products could be observed

## Tyr-D-Arg-Phe-Lys-NH2 [DALDA]
[4]
  IC50: 254 nM

## Cc1cc(O)cc(C)c1C[C@H](N)C(=O)N[C@H](CCCNC(=N)N)C(=O)N[C@@H](Cc1ccccc1)C(=O)N[C@@H](Cc1cn([C@@H]2O[C@H](CO)[C@@H](O)[C@H](O)[C@H]2O)nn1)C(N)=O [compound 5]
[3]
  degradation in human plasma: no degradation products could be observed

## N=C(N)NCCC[C@@H](NC(=O)[C@@H](N)Cc1ccc(OCc2cn([C@@H]3O[C@H](CO)[C@H](O)[C@H](O)[C@H]3O)nn2)cc1)C(=O)N[C@@H](Cc1ccccc1)C(=O)N[C@@H](CCCCN)C(N)=O [compound 3]
[5]; compound 3 vs DALDA
  loss in binding (MOR) relative to DALDA: 22 fold
[5]; μ/δ receptor binding selectivity ratio
  Ki ratio μ/δ: >130

## OC[C@@H](O)[C@@H](O)[C@H](O)[C@H](O)CO [mannitol]
[6]
  oral bioavailability: ~ 20%

— article PMC4023695 (ACS medicinal chemistry letters, 2014)
